Article PMC3869807 (PLoS ONE, 2013)
“And” between values parts separate entries of the source, which are not always exact repeats. Equal entries are not always repeated.

Key:
µ-opioid receptor [1] = biological target: T1, µ-opioid receptor (Homo sapiens, UniProt P35372); assay: cell-based; type: cell-based; design: host or cells: U2OS
µ-opioid receptor [2] = biological target: T1, µ-opioid receptor; assay: biochemical; design: host or cells: U2OS (membrane preparation)
µ-opioid receptor [3] = biological target: T1, µ-opioid receptor; assay: biochemical; type: binding; design: host or cells: U2OS (membrane preparation)
µ-opioid receptor [4] = biological target: T1, µ-opioid receptor; assay: biochemical; type: binding; design: host or cells: U2OS (membrane preparation); remark: listed apart in the source

T1 sequence (P35372 whole entry): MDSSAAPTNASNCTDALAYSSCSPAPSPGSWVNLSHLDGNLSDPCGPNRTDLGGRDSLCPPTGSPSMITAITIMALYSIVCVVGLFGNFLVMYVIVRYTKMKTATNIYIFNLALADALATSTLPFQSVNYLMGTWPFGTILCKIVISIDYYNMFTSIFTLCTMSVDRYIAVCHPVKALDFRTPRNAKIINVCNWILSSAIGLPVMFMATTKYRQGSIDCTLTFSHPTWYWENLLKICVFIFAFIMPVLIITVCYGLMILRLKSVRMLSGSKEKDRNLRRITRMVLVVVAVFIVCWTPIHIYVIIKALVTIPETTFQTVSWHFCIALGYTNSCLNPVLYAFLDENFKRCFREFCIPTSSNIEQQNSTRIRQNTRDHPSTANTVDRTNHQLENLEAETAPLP

In the case of `C[C@@H](NC(=O)[C@@H](N)Cc1ccc(O)cc1)C(=O)NCC(=O)N(C)[C@@H](Cc1ccccc1)C(=O)NCCO` [DAMGO, [D-Ala^2, MePhe^4, gly^5 –ol]-enkephalin], the “β-arrestin recruitment that was PTX sensitive” value (µ-opioid receptor [1]) is reported as 60–70%.

In the case of `NC(=O)[C@H](Cc1ccccc1)NC(=O)[C@H](Cc1ccccc1)NC(=O)[C@@H]1CCCN1C(=O)[C@@H](N)Cc1ccc(O)cc1` [Endomorphin 2, endomorphin 2], the Emax (µ-opioid receptor [1]) is reported as 74±4%, the Emax (µ-opioid receptor [1]; U2OS) is reported as 69 ± 3% and the Emax (µ-opioid receptor [2]) is reported as 104% and 101±2%.

For `COc1ccc2c3c1O[C@H]1C(=O)CC[C@@]4(O)[C@@H](C2)N(C)CC[C@]314` [Oxycodone, oxycodone], the “β-arrestin recruitment that was PTX sensitive” value (µ-opioid receptor [1]) was 60–70% and the Emax (µ-opioid receptor [2]) was 95% and 104±2%.

`CC(=O)N[C@@H](Cc1ccccc1)C(=O)NCC(C)(C)NC(=O)[C@@H](N)Cc1ccc(O)cc1.Cl` [Pfizer comp 1, 2-(L-Tyrosylamino)-1-[(N-acetyl-L-phenylalanyl)-amino]-2-methylpropane hydrochloride] was tested, and the Emax (µ-opioid receptor [1]) was 99±8%, the “β-arrestin recruitment that was PTX sensitive” value (µ-opioid receptor [1]) was 60–70% and the Emax (µ-opioid receptor [1]; U2OS) was 106 ± 4%. The EC50 (µ-opioid receptor [1]; β-fun 1 nM EC50) was 1.38 nM, the EC50 (µ-opioid receptor [1]; β-fun 10 nM EC50) was 2.24 nM and the Ki (µ-opioid receptor [3]; GRK2 moi 5 KL) was 21.9 nM. It also gave a Ki (µ-opioid receptor [3]; Untransduced KL) of 42.7 nM, a Ki (µ-opioid receptor [4]; GRK2 moi 5 KH) of 0.0513 nM and a Ki (µ-opioid receptor [4]; Untransduced KH) of 0.0479 nM. For the same compound, the Emax (µ-opioid receptor [2]) was 103% and 100±4% and the EC50 (µ-opioid receptor [2]; EC50) was 0.219 nM and 0.17 nM.
